Laboratory results: ChEMBL document CHEMBL1135239, “Imidazo[5,1-f]triazin-4(3H)-ones, a new class of potent PDE 5 inhibitors” (Bioorg Med Chem Lett, 2002)

Columns and labels:
Phosphodiesterase 3 = Phosphodiesterase 3 (Homo sapiens, UniProt Q14432+Q13370); experiment: Inhibition of Phosphodiesterase 3; assay type: protein assay
Phosphodiesterase 4 = Phosphodiesterase 4 (Homo sapiens, UniProt P27815+Q08499+Q07343+Q08493); experiment: Inhibition of Phosphodiesterase 4; assay type: protein assay
[1] = molecular target: cGMP-specific 3',5'-cyclic phosphodiesterase (Homo sapiens, UniProt O76074)
Phosphodiesterase 1 = Phosphodiesterase 1 (Bos taurus, UniProt Q01061+P14100); experiment: Inhibition of Phosphodiesterase 1; assay type: protein assay
Oryctolagus cuniculus = experiment: In vivo minimal effective dose for inhibition of phosphodiesterase in conscious rabbit model by peroral administration; assay type: functional; conditions: po, read-out: MED

SMILES	IC50 (Phosphodiesterase 3)	IC50 (Phosphodiesterase 4)	IC50 [1]	IC50 (Phosphodiesterase 1)	minimal effective dose (Oryctolagus cuniculus)
CCCc1nn(C)c2c(=O)[nH]c(-c3ccccc3OCC)nc12	> 0.5 µM	> 0.5 µM	0.04 µM	–	–
CCCOc1ccc(S(=O)(=O)N2CCN(C)CC2)cc1-c1nc2c(ncn2CCC)c(=O)[nH]1	> 0.5 µM	> 0.5 µM	–	–	–
CCCOc1ccccc1-c1nc2c(ncn2CCC)c(=O)[nH]1	> 0.5 µM	> 0.5 µM	0.01 µM	–	–
CCCc1nc(C)c2c(=O)[nH]c(-c3ccccc3OCC)nn12	> 0.5 µM	> 0.5 µM	0.005 µM	0.3 µM	–

Further lines, with some results ahead:

IC50 (Phosphodiesterase 3)	IC50 (Phosphodiesterase 4)	IC50 [1]	IC50 (Phosphodiesterase 1)	SMILES	minimal effective dose (Oryctolagus cuniculus)
> 0.5 µM	–	–	0.3 µM	CCCc1nc(C)c2c(=O)[nH]c(-c3cc(S(=O)(=O)N4CCN(C)CC4)ccc3OCC)nn12	–
–	–	–	0.18 µM	CCCc1nc(C)c2c(O)nc(-c3cc(S(=O)(=O)N4CCN(CC)CC4)ccc3OCC)nn12.Cl [VARDENAFIL HYDROCHLORIDE]	3 mg/kg
